The values that follow come from paper PMC12522106 (Cancer Research Communications, 2025).

The structures appear in SMILES notation. pEC50: −log10 of the molar value. Bounds are passed on as bounds.

The subject of data set [1] is human and canine patient-derived sarcospheres. Description: Resazurin metabolic activity of patient-derived sarcospheres, human and canine summarised together. The data set is classed as cell-based. The following applies: 48 h, the other patient samples, read-out: ED50s of romidepsin-resistant patient samples. An excerpt:
Osteosarcoma tissue was obtained during standard-of-care procedures (biopsies or resections) in human patients treated at Indiana University Health and Riley Children’s Hospital with Institutional Review Board approval (#1501467439). Tissue from canine patients with osteosarcoma was obtained from standard-of-care amputations at the Purdue University College of Veterinary Medicine and the Metropolitan Veterinary Hospital. Osteosarcoma diagnosis was confirmed by review of pathology reports. Demographic and clinical information for human and canine patients is in Table 1. Primary osteosarcoma cells were isolated by collagenase/mechanical dispersion using a modification of a previously described protocol ([35]). […] The tissue was rinsed with cold PBS (Cytiva, cat. #SH30028.02) and minced prior to incubation in 10 mL of culture media containing collagenase type II (750 units/mL with 13–18 units of clostripain/mL, Worthington, cat. #LS004176) for 3 hours at 37°C and 5% CO2. The media and tissue fragments were centrifuged at 200 g for 5 minutes. […]
The number of patient-derived cells required to obtain sarcospheres with 400-μm diameters was determined for each patient and varied from 1,000 to 15,000 cells per sarcosphere. […]
A general note: Alamar Blue is a resazurin reagent that responds to reducing activity.

In data set [2] the test system is LM7 sarcospheres. Description: Sarcosphere resazurin metabolic activity (initial and secondary screens). The data set is classed as cell-based, human. The following applies: secondary screen; without MAP. As to the method:
Khanna DVM, PhD (NCI). […] Medium was sterile filtered before use.
Highly metastatic osteosarcoma cells cultured in monolayers at 50% to 80% confluence were lifted with Accutase (Innovative Cell Technologies, Inc., cat. #NC9839010), resuspended in media, and diluted to the desired concentration. […] Following cell seeding, plates were centrifuged (1,000 g for 10 minutes at 4°C) and then incubated at 37°C with 5% CO2. […] Then, 100 μL drug treatment or vehicle was added to each well. […] Resazurin reduction on day 2 by vehicle-treated sarcospheres was compared with resazurin reduction on day 0 to calculate sarcosphere growth without drug over 2 days in selected experiments.
Plates were incubated at 37°C in 5% CO2 for 2 or 6 hours.
Sarcospheres were matured for 24 hours and then treated for 48 hours with media containing 10 µmol/L of each drug and 0.1% DMSO. […] Growth inhibition represents a more clinically translatable measure for screening studies in which a value of 0% represents stable disease since the start of treatment, values of 0% to 100% represent progression in which 100% is the untreated control, and values less than 0% represent regression in which −100% represents blank wells without sarcospheres.

For data set [3] the following is noted: cited from earlier work.
The test system of data set [4] is LM7 sarcospheres. The experiment in a line: Cell cycle analysis by flow cytometry (DAPI). Format: cell-based, human. The following applies: 10 nmol/L for 24 hours. As to the method: (§1) Sarcospheres were washed with PBS to remove any media and then resuspended in Accumax Cell Detachment Solution ([…] Technologies, #07921) for 15 to 30 minutes. Sarcospheres were manually dissociated by pipetting up and down at least 10 times. Following dissociation, cells were fixed in Cytofix/Cytoperm (BD Cytofix/Cytoperm Fixation/Permeabilization Solution Kit, BDB554714) for 10 to 20 minutes at 4°C protected from light. Fixation solution was removed with two washes in sterile PBS. Cells were resuspended in PBS and stored for no more than 72 hours at 4°C. Cells were transferred to flow cytometry tubes for staining. For DAPI staining, 1 mg/mL DAPI (BD Pharmingen, #564907) was diluted 1000-fold in sterile PBS and 500 μL was added to the appropriate tubes containing an equal volume of cell suspension. Flow cytometry was performed using a BD LSRFortessa X-20 flow cytometer using a 407 laser. Cell cycle analysis was performed using the Watson model in FlowJo software (version 10.10.0).
(In general: A flow cytometer gives signals particle by particle.)

In a further data set the test system is 143B sarcospheres. The experiment in a line: Cell cycle analysis by flow cytometry (DAPI). Format: cell-based, human. The following applies: 10 nmol/L for 24 hours. As to the method:
as §1

The subject of data set [5] is monolayers of either established osteosarcoma cell lines or PDX cell lines. Details: method as in PMID 30395907, PMID 26601688, PMID 37457661, PMID 35411591. The following applies: cited from earlier work.

With `C/C=C1\NC(=O)[C@H]2CSSCC/C=C/[C@H](CC(=O)N[C@H](C(C)C)C(=O)N2)OC(=O)[C@H](C(C)C)NC1=O` [romidepsin], the pEC50 in data set [1] was less than 6.00. Besides, in the data set with LM7 sarcospheres [2], the “rank of ED50 among the 13 drugs” value is listed as “lowest ED50”. Besides, in data set [3], the “most common severe adverse events” value was “thrombocytopenia and neutropenia”; the “most common side effect” value is “Nausea”; the severe toxicities result is listed as “few severe toxicities”. For the same compound, in data set [3] (reported in humans, rats, and beagle dogs), the “most concerning potential side effect” value was “cardiac toxicity”. In addition, in the data set on LM7 sarcospheres [4], the cell cycle block entry is “without inducing a cell cycle block” and the “proportion of sub-G1 cells” value is listed as “increased the proportion of sub-G1 cells”. In addition, in the data set with 143B sarcospheres, the cell cycle block entry was “induced a G2–M cell cycle block” and the “proportion of sub-G1 cells” value is recorded as “without altering the proportion of sub-G1 cells”. In addition, the “standing in four independent screens” value in data set [5] was “among the top hits”.
